Reference: patent publication US20040018623A1, “Medium for preparing dedifferentiated cells” (priority 1999, published 2004)

Assays:
[1] = test system: isolated canine islets; assay: Islet-cystic (duct epithelial) transformation / transdifferentiation of isolated islets; assay type: cell-based; conditions: for cystic transformation, % of control: at 72 hours, islets pre-incubated prior to embedding in collagen, control = DMEM/F12-CT group; for ductal transformation in suspension with soluble matrix protein: islets in suspension in DMEM/F12-CT supplemented with soluble protein (50 μg/ml)
[2] = target: integrins (on isolated canine islet cells) (dog); assay: cell-based or functional assay

Molecule	cystic transformation, % of control [1]	ductal transformation in suspension with soluble matrix protein [1]	further results
GRGDSP [reference compound]	57 % of control	–	islet cell transdifferentiation after prior incubation of freshly isolated islets with peptide ([1]; prior incubation of islets with the peptide): partially blocked
GRGESP [control peptide, reference compound]	–	–	influence on the transformation process ([1]; islets pre-incubated with peptide (400 μg/ml) prior to embedding in collagen): little influence
fibronectin	50 % of control	failed to undergo ductal transformation	–
laminin	50 % of control	failed to undergo ductal transformation	–
GRGDSP [RGD-motif containing GRGDSP peptide]	–	–	islet-cystic transformation at 72 hours, percent of the control DMEM/F12-CT group [2]: 57 % of control
